Source: the supplement of paper PMC10307832

Key:
Experiment in all cases: relative viability (nuclei count vs DMSO), 5 days (fraction); higher = more cells survive
[1] = compound: CC1=CC(=NN1)NC2=CC(=NC(=N2)/C=C/C3=CC=CC=C3)N4CCN(CC4)C + N=C(N)NC(=N)NCCc1ccccc1 [Phenformin] (partner 250 µM)
Outline: (§1)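 Five library-drug doses in √10 steps were combined with a fixed anchor-drug dose, or a single drug was given alone, by pin tool to lung cancer cell lines in 1536-well plates the day after seeding. Nuclei were stained and counted after 5 days. Relative viability is the nuclei count in treated wells over that in vehicle wells, taken as the median of duplicate plates.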

[2] = compound: CC1=CC(=NN1)NC2=CC(=NC(=N2)/C=C/C3=CC=CC=C3)N4CCN(CC4)C + CC(=O)c1c(C)c2cnc(Nc3ccc(N4CCNCC4)cn3)nc2n(C2CCCC2)c1=O [Palbociclib] (partner 0.5 µM)
Outline: as §1

[3] = compound: CC(C)C[C@H](NC(=O)[C@H](Cc1ccccc1)NC(=O)c1cnccn1)B(O)O [Bortezomib] + Cc1nc(NC(=O)N2CCC[C@H]2C(N)=O)sc1-c1ccnc(C(C)(C)C(F)(F)F)c1 [Alpelisib] (partner 2 µM)
Outline: as §1

[4] = compound: CC1=CC(=NN1)NC2=CC(=NC(=N2)/C=C/C3=CC=CC=C3)N4CCN(CC4)C + NC(=O)Nc1cc(-c2cccc(F)c2)sc1C(=O)N[C@H]1CCCNC1 [AZD7762] (partner 0.2 µM)
Outline: as §1

Cell Line	relative viability ([1]; first compound 0.08 µM)	relative viability ([1]; first compound 0.253 µM)	relative viability ([1]; first compound 0.8 µM)	relative viability ([1]; first compound 2.53 µM)	relative viability ([1]; first compound 8 µM)	relative viability ([2]; first compound 0.08 µM)	relative viability ([2]; first compound 0.253 µM)	relative viability ([2]; first compound 0.8 µM)	relative viability ([2]; first compound 2.53 µM)	relative viability ([2]; first compound 8 µM)	relative viability ([3]; first compound 0.0002 µM)	relative viability ([3]; first compound 0.000632 µM)	relative viability ([3]; first compound 0.002 µM)	relative viability ([3]; first compound 0.006325 µM)	relative viability ([3]; first compound 0.02 µM)	relative viability ([4]; first compound 0.08 µM)	relative viability ([4]; first compound 0.253 µM)	relative viability ([4]; first compound 0.8 µM)	relative viability ([4]; first compound 2.53 µM)	relative viability ([4]; first compound 8 µM)
COR-L 105	0.453	0.495	0.469	0.213	0.17	0.432	0.381	0.406	0.275	0.323	0.911	1.04	0.909	0.237	0.227	–	–	–	–	–
LCLC-97TM1	0.448	0.468	0.41	0.236	0.154	0.246	0.201	0.201	0.168	0.0556	0.245	0.242	0.113	0.11	0.114	0.177	0.251	0.236	0.139	0.0567
NCI-H520	0.655	0.62	0.603	0.23	0.172	0.209	0.214	0.184	0.142	0.113	0.981	0.935	0.91	0.155	0.135	–	–	–	–	–
NCI-H1993	0.462	0.492	0.427	0.498	0.437	0.639	0.397	0.711	0.49	0.267	0.697	0.617	0.708	0.462	0.484	0.712	0.622	0.775	0.33	0.3
NCI-H1437	0.3	0.331	0.307	0.16	0.107	0.304	0.317	0.307	0.231	0.152	0.951	0.975	1.05	0.0854	0.0875	1.17	1.17	1.21	1.05	0.416
NCI-H522	0.664	0.632	0.712	0.544	0.484	1.04	1.19	1.31	0.726	0.357	–	–	–	–	–	0.859	0.934	0.933	0.516	0.587
NCI-H1563	0.726	0.659	0.664	0.592	0.43	–	–	–	–	–	0.882	0.848	0.844	0.505	0.489	–	–	–	–	–
NCI-H1703	–	–	–	–	–	–	–	–	–	–	0.32	0.256	0.131	0.134	0.0835	0.151	0.0851	0.114	0.147	0.0896
NCI-H661	0.282	–	0.265	0.226	0.211	0.4	0.41	0.404	0.27	0.269	0.582	0.501	0.625	0.602	0.216	–	–	–	–	–
NCI-H1648	–	–	–	–	–	0.262	0.25	0.238	0.256	0.271	–	–	–	–	–	0.578	0.691	0.663	0.626	0.513
